In PMC5023777 (British Journal of Cancer, 2016):
pIC50: −log10 of the molar value.

Columns and labels:
mTOR = mTOR (Homo sapiens, UniProt P42345); assay: mTOR kinase TR-FRET assay; assay type: biochemical
HCT116 cells [1] = assay: Cell cycle phase analysis by flow cytometry, HCT116; conditions: GI50 concentration (100 μM for 6 and 3), 24 h, asynchronous cultures
HCT116 cells [2] = assay: SRB cell growth inhibition assay, HCT116; assay type: cell-based, human; conditions: HCT116 and HT29 cells, SRB GI50
CDK2 = CDK2 (Homo sapiens, UniProt P24941); assay: CDK2 purified kinase assay; assay type: biochemical
HCT116 cells [3] = assay: Clonogenic survival assay, HCT116; assay type: cell-based, human; conditions: 10 μM, 72 h exposure

Sequence of mTOR (P42345 1360-2549 limits assumed): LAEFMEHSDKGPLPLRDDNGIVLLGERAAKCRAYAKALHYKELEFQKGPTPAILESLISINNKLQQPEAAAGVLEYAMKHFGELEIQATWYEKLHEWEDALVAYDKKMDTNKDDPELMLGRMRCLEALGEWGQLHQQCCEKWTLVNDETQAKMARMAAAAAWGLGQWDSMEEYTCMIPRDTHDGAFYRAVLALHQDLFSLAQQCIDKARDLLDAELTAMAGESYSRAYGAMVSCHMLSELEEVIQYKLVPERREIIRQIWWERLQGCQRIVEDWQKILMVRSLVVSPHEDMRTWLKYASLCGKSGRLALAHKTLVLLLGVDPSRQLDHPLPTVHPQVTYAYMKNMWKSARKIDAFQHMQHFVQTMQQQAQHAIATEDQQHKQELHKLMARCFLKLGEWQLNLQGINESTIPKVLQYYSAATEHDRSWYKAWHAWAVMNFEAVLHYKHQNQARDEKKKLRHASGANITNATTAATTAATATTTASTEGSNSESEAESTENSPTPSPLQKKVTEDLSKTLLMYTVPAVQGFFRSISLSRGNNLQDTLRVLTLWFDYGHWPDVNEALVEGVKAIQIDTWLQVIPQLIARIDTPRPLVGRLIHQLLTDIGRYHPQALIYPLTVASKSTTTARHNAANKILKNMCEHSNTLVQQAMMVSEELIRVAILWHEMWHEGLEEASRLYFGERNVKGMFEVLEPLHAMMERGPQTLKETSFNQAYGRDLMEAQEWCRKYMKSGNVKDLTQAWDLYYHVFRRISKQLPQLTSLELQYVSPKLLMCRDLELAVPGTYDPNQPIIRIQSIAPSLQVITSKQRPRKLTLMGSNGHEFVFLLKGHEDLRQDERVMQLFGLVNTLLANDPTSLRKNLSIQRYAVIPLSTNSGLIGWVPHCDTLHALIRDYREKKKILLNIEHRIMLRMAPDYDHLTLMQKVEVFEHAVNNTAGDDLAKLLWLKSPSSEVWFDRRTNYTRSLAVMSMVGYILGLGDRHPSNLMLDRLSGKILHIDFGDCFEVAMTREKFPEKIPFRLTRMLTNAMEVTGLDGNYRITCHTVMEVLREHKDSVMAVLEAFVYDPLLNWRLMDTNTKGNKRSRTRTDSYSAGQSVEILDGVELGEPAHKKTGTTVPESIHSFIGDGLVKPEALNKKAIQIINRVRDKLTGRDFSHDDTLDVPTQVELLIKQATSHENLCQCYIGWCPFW

| pIC50 (mTOR) | SMILES | effect on cell cycle phase distribution, HCT116 (HCT116 cells [1]) | fold less potent at inhibiting cell growth than 1, 2 and 5 (HCT116 cells [2]) | also measured |
| --- | --- | --- | --- | --- |
| 4.72 | Nc1nc(N)c(N=O)c(OCC2CCCCC2)n1 [Compound 2] | greater G1 phase accumulation than rapamycin or dactolisib | – | – |
| 5.31 | Nc1nc(N)c(N=O)c(OCc2ccc(Cl)cc2)n1 [Compound 8, 6-(4-Chlorobenzyloxy)-5-nitrosopyrimidine-2,4-diamine] | – | 5–10 fold | inhibition of CDK2 (in words) (CDK2): did not inhibit CDK2 |
| – | Cn1c(=O)n(-c2ccc(C(C)(C)C#N)cc2)c2c3cc(-c4cnc5ccccc5c4)ccc3ncc21 [Dactolisib (NVP-BEZ235)] | caused a G1 arrest | – | – |
| – | NS(=O)(=O)c1ccc(Nc2nc(OCC3CCCCC3)c3nc[nH]c3n2)cc1 [NU6102, 4-[[6-(cyclohexylmethoxy)-9H-purin-2-yl]amino]-benzenesulfonamide] | – | – | cytotoxicity (clonogenic), HCT116 (HCT116 cells [3]): cytotoxic as a single agent |
| – | CO[C@H]1C[C@@H]2CC[C@@H](C)[C@@](O)(O2)C(=O)C(=O)N2CCCC[C@H]2C(=O)O[C@H]([C@H](C)C[C@@H]2CC[C@@H](O)[C@H](OC)C2)CC(=O)[C@H](C)/C=C(\C)[C@@H](O)[C@@H](OC)C(=O)[C@H](C)C[C@H](C)/C=C/C=C/C=C/1C [Rapamycin] | caused a G1 arrest | – | – |

| SMILES | pIC50 (mTOR) | effect on cell cycle phase distribution, HCT116 (HCT116 cells [1]) | fold less potent at inhibiting cell growth than 1, 2 and 5 (HCT116 cells [2]) | also measured |
| --- | --- | --- | --- | --- |
| CCC(C)Oc1nc(N)nc(N)c1C#N (stereo not shown) [Compound 7, 2,6-Diamino-4-sec-butoxypyrimidine-5-carbonitrile] | < 4.70 | – | 5–10 fold | – |
